Patent US5202456A, “Compounds for inhibition of protein methylation” (The President and Fellows of Harvard College, priority 1991, dated 1993)
“Also recorded” adds a separate entry of the source. Like-named read-outs stand apart in the source and are kept apart here. * marks the point of attachment. Farnesyl = CC(C)=CCC/C(C)=C/CC/C(C)=C/C*

Key:
transducin γ subunit = assay: In vitro carboxyl-methylation of transducin γ subunit in ROS; type: biochemical, bovine; conditions: 10 μM; [3H]SAM 2.3 μM; densitometry of SDS gels
Excerpt: We have identified an S-adenosyl-L-methionine-dependent methyltransferase activity in bovine retinal rod outer segments (ROS) which methylates the free carboxyl group of the farnesylated cysteine of bovine retinal transducin γ subunit. The bovine retinal transducin γ subunit has a carboxyl-terminal --CAAX motif and undergoes a farnesylation reaction similar to that observed on ras (Lai et al., Proc. Natl. Acad. Sci. USA 87:7673, 1990; Fukada et al., Nature 346:658, 1990). Bovine retinal rod outer segment S-adenosyl-L-methionine-dependent methyltransferase (ROS methyltransferase) provides a means by which to identify compounds capable of interfering with the methylation of proteins having a carboxyl-terminal --CAAX motif.
Frozen bovine retinas (Wanda Lawson Co., Lincoln, Nebr.) were used to prepare ROS membranes depleted of peripheral proteins using a modification of the procedure of Wessling-Resnick et al. (J. Biol. Chem. 262:3697, 1987). Briefly, ROS membranes were washed with low ionic strength buffer and 100μM GTP, resuspended in 50 mM Hepes-Na (pH 7.4), 100 mM NaCl, 5 mM MgCl2, 0.1 mM phenylmethylsulfonyl fluoride, 0.1 mM dithiothreitol (buffer A) and stored in small aliquots at -80° C. until used. […]

[1] = test system: methyltransferase activity in HL-60 cells; assay: Methylation of AFC by activity present in HL-60 cell membrane; type: biochemical; conditions: 10-fold excess of FTA
[2] = target: T1, ROS methyltransferase (bovine retinal rod outer segment S-adenosyl-L-methionine-dependent methyltransferase) (Bos taurus, UniProt A0AAA9SD88); assay: ROS methyltransferase assay: compounds as substrates (Km) or inhibitors (Ki) of AFC methylation; type: biochemical
T1 construct: utilizing ROS membranes as the source of methyltransferase enzyme; tissue Wanda Lawson Co., Lincoln, Nebr; (frozen bovine retinas); host or cells: bovine retinal rod outer segment (ROS) membranes
T1 sequence (A0AAA9SD88 1-284): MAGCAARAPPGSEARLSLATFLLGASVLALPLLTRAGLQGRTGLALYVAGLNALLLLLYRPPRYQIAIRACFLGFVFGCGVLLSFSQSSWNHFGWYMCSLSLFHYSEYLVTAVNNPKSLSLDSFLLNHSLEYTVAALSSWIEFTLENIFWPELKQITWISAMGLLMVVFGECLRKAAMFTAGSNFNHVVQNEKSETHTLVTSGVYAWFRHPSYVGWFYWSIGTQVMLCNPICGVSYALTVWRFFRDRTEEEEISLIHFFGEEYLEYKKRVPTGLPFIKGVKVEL
Protocol: Standard assays may be used to determine Km for substrates and Ki for inhibitors. […] The values of Ki and Km are calculated from kinetic assays by conventional means (Fersht, Enzyme Structure and Mechanism, W. H. Freeman and Co., New York, 1984). Examples are provided below to illustrate suitable assays, and are not intended to limit the invention.
One suitable assay of methylation functions uses bovine retinal rod outer segment (ROS) methyltransferase and a natural substrate, transducin. […] Another suitable assay uses N-acetyl-S-farnesylcysteine as a substrate for ROS methyltransferase.
The bovine retinal transducin γ subunit has a carboxyl-terminal --CAAX motif and undergoes a farnesylation reaction similar to that observed on ras (Lai et al., Proc. Natl. Acad. Sci. USA 87:7673, 1990; Fukada et al., Nature 346:658, 1990).
(§1) Frozen bovine retinas (Wanda Lawson Co., Lincoln, Nebr.) were used to prepare ROS membranes depleted of peripheral proteins using a modification of the procedure of Wessling-Resnick et al. (J. Biol. Chem. 262:3697, 1987). Briefly, ROS membranes were washed with low ionic strength buffer and 100μM GTP, resuspended in 50 mM Hepes-Na (pH 7.4), 100 mM NaCl, 5 mM MgCl2, 0.1 mM phenylmethylsulfonyl fluoride, 0.1 mM dithiothreitol (buffer A) and stored in small aliquots at -80° C. until used. Transducin was isolated by disrupting ROS membranes by passing the membranes through a narrow needle and washing the disrupted membranes in a series of centrifugation steps as described by Wessling-Resnick et al. (J. Biol. Chem. 262:3697, 1987). Finally transducin was eluted from the membranes with 100μM GTP. The transducin-enriched supernatant was concentrated using Centriprep (Amicon).
(§2) For initial studies, the reaction mixture contained 20 μCi of S-adenosyl-[methyl-^3 H] methionine ([^3 H]SAM) (2.34 μM, Amersham) and an aliquot of ROS (120μg of total protein) or of washed ROS membranes (80μg of total protein) in 100 μl of buffer A. Purified transducin was added to this mixture to a concentration of 5 μM. AFC, N-acetylcysteine, or AFC methylester was added in 2 μl of dimethyl sulfoxide to give a final concentration of 20 μM, and the reaction was carried out at 37° C.
The above-described methyltransferase assay was used to analyze the analogs described above.

HL-60 cells = assay: Inhibition of HL-60 cell proliferation (trypan blue dye exclusion count); type: cell-based; conditions: FIG. 2; in words
Protocol: FTA, FTP, AFHC and AFC were tested for their ability to inhibit cell growth as follows.
HL-60 cells (ATCC CCL 240, American Type Culture Collection, Rockville, Md.) which harbor an activated ras gene were grown in RPMI medium (Gibco/BRL, Bethesda, Md.) supplemented with 10-15% fetal calf serum, L-glutamine, penicillin and streptomycin. These cells were treated with various concentrations of FTA, FTP, AFHC, or AFC dissolved in dimethyl sulfoxide (DMSO) or with DMSO only (In all experiments the final DMSO concentration was 1% or less). Treated ans untreated cells were incubated under standard culture conditions for several days. Cells were counted manually at 24 hour intervals using a trypan blue dye exclusion assay which counts only live, intact cells.

23 kDa ras protein = assay: [3H]SAM methylation of 23 kDa ras protein in disrupted HL-60 cells; type: biochemical; conditions: 50 μM
Protocol: In an in vitro labelling reaction similar to that described above for ROS membranes, the 23 kDa ras protein was the principle protein methylated by [^3 H]SAM labelling of disrupted HL-60 cells. In this assay 50 μM FTA inhibited methylation of the 23 kDa protein by 61%.

[3] = test system: demethylase activity in ROS membranes; assay: Methylation exchange/demethylation of AFC methyl ester with ROS membranes; type: biochemical, bovine
Protocol: as §1, §2
To study the demethylation process directly, AFC[^3 H]methyl ester was incubated with ROS membranes in the presence of methylation inhibitors. […] Under similar conditions, demethylation of Tγ and the putative small G protein (23-29 kDa) was also observed.

HL-60 cell extracts = assay: Turnover of AFC methyl ester by HL-60 cell extracts; type: biochemical; conditions: in words
[4] = test system: methyltransferase present in HL-60 cell extracts; assay: Methylation of transducin γ subunit by HL-60 cell extract methyltransferase; type: biochemical; conditions: in words
[5] = [3H]SAM and washed ROS membranes

CC(C)=CCC/C(C)=C/CC/C(C)=C/CSCC(=O)O [FTA, 2-farnesylthioacetic acid]
inhibition of in vitro carboxyl-methylation of transducin γ subunit (transducin γ subunit): 70%
inhibition of AFC methylation by HL-60 membrane activity [1]: 90%
Ki ([2]; Table 1, conventional inhibitors, read-out: Ki): 4.6 µM
Ki ([2]; calculated, read-out: Ki for inhibition of AFC methylation): 4.6 µM
competitive inhibition of AFC methylation ([2]; in words): potent competitive inhibitors
substrate activity for ROS methyltransferase ([2]; in words): substrate activity was lost; also recorded: not substrates
inhibition of proliferation of HL-60 cells (HL-60 cells): can inhibit proliferation
inhibition of methylation of the 23 kDa protein (23 kDa ras protein): 61%

COC(=O)[C@H](CSC/C=C(\C)CC/C=C(\C)CCC=C(C)C)NC(C)=O [AFC methyl ester]
hydrolysis of methyl ester by demethylase activity ([3]; ROS membranes, in presence of methylation inhibitors): rapidly hydrolyzed
duration of linear incorporation of radioactivity [3, 5]: at least 2 hr
incorporation of radioactivity into AFC methyl ester [3, 5]: linear, time-dependent incorporation of radioactivity
turnover by HL-60 cell extracts (HL-60 cell extracts): can be turned over

B1: γ subunit of transducin: γ subunit (Tγ) of retinal transducin, farnesylated at cysteine (protein, UniProt P02698 2-71, looked up)
Guanine nucleotide-binding …: PVINIEDLTEKDKLKMEVDQLKKEVTLERMLVSKCCEEFRDYVEERSGEDPLVKGIPEDKNPFKELKGGC(Farnesyl)
modifications: ends and bridges not checked
notes: γ subunit (Tγ) of retinal transducin, farnesylated at cysteine
methylation by methyltransferase in HL-60 cell extracts [4]: can be methylated
